From a melting point compilation (Tetko et al.; mined from patent text by program, amines drawn as free bases though some values may be those of a salt)

SMILES	melting point
O=C(O)c1cc(Oc2ccc(Cl)cc2)c(Cl)cc1[N+](=O)[O-]	160 to 162 °C
CCCC1Cc2c3c(c(C)c(C)c2C1O)OC(C(=O)O)C3 (stereo unspecified)	161 °C
CC(C)(C)OC(=O)N[C@H](Cc1ccc(C(F)(F)F)o1)[C@@H](O)c1ccc(F)cc1 (racemic)	111 to 112 °C
COc1cc(N2CCCN(C3CCN(C)CC3)CC2)ccc1Nc1ncc2ccc(-c3ccccc3N(C)S(C)(=O)=O)n2n1	90 to 97 °C
CCCn1c(=O)c2[nH]c(-c3cc(C)n(CC(=O)Nc4ccc(OC)cc4)n3)nc2n(CCC)c1=O	293 to 296 °C
O=C(O)CCCCCc1nn(-c2ccc(F)cc2)c2c1CCC2	64 to 67 °C
CC(=O)N1CCN=C1Nc1cc(C)nn1-c1ccc(Cl)c(Cl)c1	156 to 157 °C
CN(C)CCc1cccc2ccc(CS(=O)(=O)N3CCOCC3)cc12	114 to 117 °C
Cc1cccc2c(Nc3cccc(OCCN(CCCl)CCCl)c3)c3cccc(C(=O)NCCN(C)C)c3nc12	129 to 130 °C
CCC(=O)N(C)c1ccc(C(=O)C=CN(C)C)cc1	76 to 78 °C
S=C(SSC(=S)c1ccccc1)c1ccccc1	89 to 91 °C
CC(C)(C)C1CCc2c(c3ccccc3n2CC[N+]2([O-])CCCC2)C1 (stereo unspecified)	163 to 165 °C
COc1ccc(NC(=O)c2ccc(-c3ccc(-c4noc(C)n4)cc3)c(Cl)c2)cc1N1CCN(C)CC1	93 to 95 °C
Cc1c(Cl)c(Oc2ncc(C(F)(F)F)cc2Cl)nn1C(=O)NCCCl	112 to 114 °C
CC(C)(C)OC(=O)N1CCN(C(=O)CI)CC1	69 to 71 °C
CC(=O)NC1=CC(C)(C)Oc2cc3nonc3cc21	218 to 220 °C
NS(=O)(=O)c1nc2ccc(OCC(O)CO)cc2s1 (stereo unspecified)	183 to 185 °C
CC(=O)C1(COC(=O)Oc2ccccc2)CC2C=CC1C2 (stereo unspecified)	76 to 77 °C
Cc1ccc(S(=O)(=O)N(c2ccc(Cl)cc2C(N)=S)C(C)C)cc1	189 to 191 °C
Nc1c(Nc2cccc3cnccc23)c(=O)c1=O	215 °C
COc1c(OC)c(OC)c2c(c1OC)c(=O)c1ccc(OCc3ccccc3)c(OC)c1n2C	127 to 128 °C
O=C(Nc1ccccc1)N(Cc1ccc(Cl)cc1)C1CC2CCC1C2 (stereo unspecified)	111 to 113 °C
O=C(Nc1ccc(Br)c(C(F)(F)F)c1)c1ccccc1NCc1ccncc1	123 to 124 °C
CN(C)C(=O)n1nc(-c2ccncc2)nc1-c1ccncc1	140 to 142 °C

SMILES	melting point
COc1ccc(/C(=C/C=C/C(=O)Oc2ccc([N+](=O)[O-])cc2)c2ccccc2)cc1	113 to 115 °C
COC(=O)c1ccc(N2CCC[C@H](N(Cc3cc(C(F)(F)F)cc(C(F)(F)F)c3)c3nnn(C)n3)c3cc(C)c(C(F)(F)F)cc32)cc1	101 to 105 °C
CCCCCCCCCCCCc1nnn[nH]1	68 to 70 °C
CC(C)c1ccc(C(=O)NC(C)c2cccs2)cc1 (stereo unspecified)	100 °C
COc1ccc(-c2nc3ccc(O)cc3[nH]2)cc1C12CC3CC(CC(C3)C1)C2	230 °C
COC(=O)C12Cc3cc(Cl)ccc3C1=NN(C(=O)N(C)c1ccc(OC(F)(F)F)cc1)CO2 (stereo unspecified)	130 to 131 °C
C=CC(=O)NCCOc1ccc2c(c1)nc(N)c1nc(CCC)sc12	200 to 202 °C
NNC1=Nc2ccc(Cl)cc2N(c2ccccc2)C(=O)C1	91 to 93 °C
CC1=CC(c2cccc([N+](=O)[O-])c2)C2=C(CCCC2=O)N1 (stereo unspecified)	183 to 185 °C
COc1cc(Cl)c2ncccc2c1	74 to 75 °C
COc1cc(CCN(C)Cc2ccc(OC)c(OC)c2)ccc1NC(=O)c1cccc2c(=O)c3cccc(F)c3[nH]c12	161 to 162 °C
OC(CCCn1ccnc1)c1ccccc1 (stereo unspecified)	205 to 207 °C
CCOc1ccc(-c2ccc(N3CC(CNC(C)=O)OC3=O)cc2)ccc1=O (stereo unspecified)	228 to 229 °C
C[C@@H]1N=C(c2ccccc2)c2cc(C#CCCCC(=O)O)ccc2N(C)C1=O	62 to 63 °C
O=C(c1cccnc1-c1ccncc1)N1CCC(O)(Cc2ccccc2)CC1	150 °C
CCCCCCCCCCCCCCCC(=O)OC[C@H](O)COC(C)=O	37 to 37.5 °C
CC(C)n1nc(-c2sc(NC(=O)c3ccc(CNCCN4CCOCC4)cc3)nc2-c2ccccc2)ccc1=O	86 to 88 °C
CCCC1c2cc(C(C)(C)C)cc(C(C)(C)C)c2OP(=O)(c2ccccc2)Oc2c1cc(C(C)(C)C)cc2C(C)(C)C (stereo unspecified)	232 to 234 °C
COC(=O)c1cscc1NC(=O)COc1ccc(Cl)c(Cl)c1	179 to 182 °C
COCC1CCCN1S(=O)(=O)c1ccc2c(c1)C1(OCCCO1)C(=O)N2 (stereo unspecified)	127 to 128 °C
COC(=O)CCC#Cc1cc(Cl)ccc1NS(=O)(=O)c1ccc(-c2ccccc2)cc1	93 °C
CC(C)C(C)C=CC(C)C1CCC2C3=CC=C4CC(O)C=CC4(C)C3CCC21C (stereo unspecified)	156 to 157 °C
O=S(=O)(Nc1ccc2c(OCc3nc(-c4ccc(F)cc4)sc3Br)cccc2c1)C(F)(F)F	139 to 140 °C
CCc1cccc(C)c1NC(=S)NC(C)(C)C	94 to 96 °C

SMILES	melting point
CCOC(Cc1ccc(OCCN2CCOc3ccccc32)cc1)C(=O)NCc1ccccc1 (stereo unspecified)	94 to 96 °C
O=[N+]([O-])c1ccc2c(c1)Sc1cc(I)ccc1N2	> 250 °C
CC1=Nc2ccccc2S(=O)(=O)N1	260 to 261 °C
O=CC1(c2ccc(Cl)cc2)CC1	38 to 41 °C
Cc1nc(C)c(C(=O)Nc2ccc(-n3nc(C4CC4)cc3C3CC3)cc2)s1	98 to 114 °C
O=S(=O)(c1ccccc1)c1ccc(NN=C2CCCN(Cc3ccccc3)CC2)cc1	142 to 146 °C
COC(=O)c1sc2c(c1N)c1ccccc1c(=O)n2-c1ccccc1	> 270 °C
CN1CCCC[C@H]1C[C@H](O)c1ccc(Br)cc1	102 to 104 °C
O=C(O)/C(=N/O)c1ccc(OCCOc2ccc3ccccc3c2)s1	138 to 140 °C
C=CCN1C2CCC1C1CCC2N1C(c1ccc(C(=O)N(CC)CC)cc1)c1cccc(OC)c1 (stereo unspecified)	99 to 101 °C
COC(=O)c1c(C(=O)OC)c(-c2ccc(OC)c(OC)c2)c2cc3c(cc2c1O)OCO3	158 to 159 °C
CCN(CC)CCOc1ccc(NC(=O)C#Cc2cccnc2)cc1Cl	118 to 120 °C
CCCCc1nc2c(N)nc3ccccc3c2n1CC1(O)CCCCC1	218 to 220 °C
O=C1c2ccc3cc(C(=O)N4CCN(Cc5ccccc5)CC4)cnc3c2N=CC1[N+](=O)[O-] (stereo unspecified)	213 to 216 °C
O=C1c2c(F)cc(F)c(F)c2C(=O)N1c1ccccc1	183 to 185 °C
CC(C)N1CCC(CNc2ccccc2C(=O)Nc2ccc(Cl)cn2)CC1	277 to 280 °C
COc1cc(C(=O)N2CCC(CCN3CCC(Nc4nc5ccccc5n4Cc4ccc(Cl)s4)CC3)(c3ccc(F)c(F)c3)C2)cc(OC)c1OC (stereo unspecified)	110 to 120 °C
CNC(=O)c1ccccc1Nc1nc(Nc2ccc3c(c2)CCN(CCF)CC3)ncc1Cl	170 to 174 °C
CC(=O)c1ccc(Nc2nnc(Cc3ccncc3)c3ccccc23)cc1O	234 to 236 °C
Cc1cccc2c1N(Cc1ccccn1)C(=O)C(NC(=O)Nc1cccc(-c3nnn[nH]3)c1)N=C2c1ccccc1F (stereo unspecified)	174 to 182 °C
CC(C(=O)O)c1ccc(-c2ccccc2)c(O)c1 (stereo unspecified)	112 to 119 °C
COc1ccccc1OC(=O)c1ncn2c1[C@@H]1CCCN1C(=O)c1c(Cl)cccc1-2	205 to 206 °C
CCCCC1C=C(N)c2ncccc2N1CC(C)(C)O (stereo unspecified)	177 to 179 °C
O=C(O)c1ccc(-c2cc3ccccc3o2)cc1	292 to 294 °C

SMILES	melting point
CC(C)NC(=O)c1ccc2[nH]cc(CCNC(=O)OCc3ccccc3)c2c1	136 to 137 °C
O=C(O)Cc1ccc2c(c1)C(=O)Cc1ccccc1O2	156 to 157 °C
NS(=O)(=O)c1cc2ccccc2n1S(=O)(=O)c1ccccc1	199 to 200 °C
Cc1ccc(S(=O)(=O)n2c(I)cc3cc(F)cnc32)cc1	158 °C
CC1(C)CCC(C)(C)c2cc(OCc3ccc(CC(N)=O)cc3)ccc21	202 to 205 °C
CN(C)c1cccc(Oc2cccc(-c3cccc(C(=O)NCCC#N)c3)n2)c1	95 to 96 °C
Cc1ccc(Cl)c(Nc2ccccc2-c2noc(=O)[nH]2)c1Cl	209 to 210 °C
NC(=O)c1ccc2c(c1)nc(-c1ccc(OCc3ccccc3)cc1)n2C1CCCC1	232 to 233 °C
CN(C)C=NS(=O)(=O)c1cc(CCNC(=O)C(F)(F)F)ccc1O	160 to 161 °C
Cc1cc(-c2ccc(Cl)cc2)n2ncc(C#N)c2n1	285 to 287 °C
CCCCN(CCCC)CCCNc1ccccc1[N+](=O)[O-]	79 °C
COc1ccc(NC(=O)N2CCc3cc(F)c(Cl)cc32)cc1N1CCN(C)CC1	177 to 180 °C
O=C1N(N2CCOCC2)c2ccccc2C1(O)Cc1ccccn1 (stereo unspecified)	168 to 170 °C
CC(=O)NCC1Cc2cccc3cccc1c23 (stereo unspecified)	145 °C
CCN(CC)c1ccc([N+](=O)[O-])c(C(=O)NCC2CCN(C(c3ccccc3)c3ccccc3)CC2)c1	167 to 168 °C
CS(=O)(=O)CCCn1cc(C(Cc2ccccc2Br)=NO)c2ccc(Cl)c(Cl)c21	191 to 194 °C
CC1(C)CC(=C(c2ccc(O)cc2)c2ccc(-c3ccccc3CO)cc2)CC(C)(C)C1	171 to 172 °C
COc1cccc([C@H]2O[C@H](CC(=O)Nc3cc(CCC(=O)O)ccc3OC(C)C)C(=O)N(CC(C)(C)CO)c3ccc(Cl)cc32)c1OC	133 to 136 °C
O=c1ccn(C2CCCO2)c(=O)[nH]1 (stereo unspecified)	99 to 101 °C
O=S(=O)(F)c1ccc(N=Nc2ccc(O)c(Cl)c2)cc1	133 to 134 °C
O=[N+]([O-])c1ccc2[nH]cc(CCCI)c2c1	95 to 98 °C
OC(CCc1ccc(OCc2ccccc2)c(OCc2ccccc2)c1)C1CCCCC1 (stereo unspecified)	107 to 108 °C
COC(=O)c1ccc(S(C)(=O)=O)c(C(=O)NC(C)(C)CO)c1Cl	70 to 72 °C
COc1ccccc1C(=O)Nc1ccc(CN2C(=O)[C@H]3CCC[C@H]3N(C(=O)CN3C(=O)c4ccccc4C3=O)c3ccccc32)cc1 (relative stereo)	279 to 281 °C
